We go through two compounds from patent publication US10464957B2, “Oxidized lipids and methods of use thereof” (Vascular Biogenics Ltd., priority 2014, dated 2019).

Assay [1] relates to human monocytes (primary CD14+). Kind of assay: Chemokine-induced cell migration trans-well assay. Type of assay: cell-based. Particulars: RANTES 100 ng/ml and MCP-1 50 ng/ml, 2-4 hours, FACS count. As for the experimental part: Venous blood samples were obtained from healthy male donors in compliance with the Institutional Review Board at the Sheba Medical Center, Ramat Gan, Israel. PBMCs were isolated on Ficoll-Paque PLUS (GE Healthcare, Uppsala, Sweden) using 50 ml Leucosep tubes (Greiner Bio-One, Frickenhausen, Germany). Cells were washed in PBS (Kibbutz Beit Haemek, Israel) and incubated at 4° C. for 15 minutes in a buffer containing PBS and 0.5% bovine serum albumin (BSA) with human CD14 microbeads (Miltenyi Biotec, Bergisch Gladbach, Germany).
Cells (10^6/ml) were pretreated for 20 min with VB-201 or VB-701 at the doses indicated in FIG. 5, or with solvent (Sol).
To test for chemokine-induced cell migration, RANTES (100 ng/ml; Cat. No. 300-06, PeproTech, Israel) and MCP-1 (50 ng/ml; Cat. No. 300-04, PeproTech, Israel) were dissolved in RPMI-1640 medium supplemented with 0.5% fetal bovine serum (FBS) and placed at the lower chamber of QCM 24-well, […], migration assay plates (Corning-Costar, Corning, N.Y.). Cells (3×10^5) were seeded in the upper chamber and incubated for 2-4 hours. Subsequently, the number of cells which migrated to the lower compartment was determined by fluorescence-activated cell sorting (FACS).

In assay [2] the test system is LPS (TLR4)-stimulated human monocytes (primary CD14+). Kind of assay: IL-12/23p40 ELISA, LPS (TLR4)-stimulated monocytes. It is filed as cell-based. The conditions noted are these: 1 hour pretreatment, 24 hour 100 ng/ml LPS, ELISA of supernatant. On the procedure:
Human monocytes were obtained as described in Example 9 and FIG. 9A-9B. Human monocytes were seeded (10^6/ml) and pretreated for 1 hour with VB-201, VB-701 or VB-702, followed by 24 hour activation with 100 ng/ml LPS from Escherichia coli strain 055:B5 (Sigma, Israel) (FIG. 9A) or 300 ng/ml Pam3CSK4 (InvivoGen, San Diego, Calif., USA) (FIG. 9B) to induce cytokine production. IL-12/23p40 concentration in the supernatant was then measured by ELISA (R&D systems, Cat. No. DY1240). Cells activated with solvent (0.5% ethanol in PBS) were used as a control.
For orientation: In an ELISA, binding on a coated surface is turned into a signal by an enzyme label.

In assay [3] the test system is NASH-induced mice. The assay can be described thus: NASH and liver fibrosis mouse model (STZ + HFD), liver histology. It is filed as in vivo. As for the experimental part: (§1) Neonatal male mice exposed to low-dose streptozotocin (STZ) develop liver steatosis with diabetes. Continuous high fat diet (HFD) increases lobular inflammation with foam cell-like macrophages, showing nonalcoholic steatohepatitis (NASH) pathology. NASH was induced in 40 male mice by a single subcutaneous injection of 200 μg per mouse of STZ two days after birth and feeding HFD [57 kcal % fat]) from four weeks of age. Vehicle, VB-703 (4 mg/kg), or telmisartan (10 mg/kg) as positive control, were administered once daily for three weeks, starting from six weeks of age. Mice were sacrificed at nine weeks of age.
Liver pathology was used to determine the effect of VB-703 on liver inflammation and fibrosis. Histology slides were stained with hematoxylin/eosin (H&E) to assess inflammation. The inflammation score was determined as follows:
Histology slides were stained with Sirius red to determine collagen content as a marker for the extent of fibrosis.

The test system of assay [4] is livers taken from NASH-induced mice. Kind of assay: Q-PCR of inflammation mediators in livers of NASH-induced mice. It is filed as in vivo. The conditions noted are these: VB-703 4 mg/kg, Q-PCR normalized to GAPDH. On the procedure: as §1
RNA was prepared from livers from normal mice and NASH-induced mice treated with vehicle, VB-703, or telmisartan, using RNeasy mini kit (Qiagen). For cDNA preparation, 2 μg of RNA was combined with qScript reaction mix and qScript Reverse Transcriptase (Quanta BioSciences) for 5 min at 22° C. and then for 30 min at 42° C. Reaction was ended by incubation for an additional 5 min at 85° C. All real time PCR reactions were performed using the 7300 Real Time PCR System (Applied Biosystems). Q-PCR with mouse ready set of probe with primer was used for IL-1β, IL-12/23p40 and MCP-1 (Applied Biosystems). GAPDH was used to normalize RNA levels.

The subject of assay [5] is kidney of nephrectomized rats. Kind of assay: Real-time PCR of pro-fibrotic markers in kidney of nephrectomized rats. It is filed as in vivo, Sprague Dawley (SD) Rats. On the procedure:
Kidney RNA was extracted with an RNeasy Fibrous Tissue Mini kit (Qiagen) and after DNAse I treatment, single-stranded cDNA was synthesized from 2 μg total RNA using the qScript cDNA Synthesis Kit (Quanta Biosciences) and diluted for real-time PCR. The expression of collagen 4α, fibronectin and TGFβ was quantified using the 7300 Real Time PCR System (Applied Biosystems). The assay was performed according to manufacturer instructions using the primers (Assay ID) represented at the table below supplied by Applied Biosystems. Data were normalized to the reference gene TATA box Binding Protein (TBP) and presented as relative mRNA levels compared with Sham PBS 0.5% Eth treatment (Table 1).
In general terms: In qPCR the cycle at which signal appears reflects the starting amount.

Where [6] appears, read: compared to Nx PBS 0.5% Eth treatment, VB-703 4 mg/kg, telmisartan 10 mg/kg.
Where [7] appears, read: normalized to TBP, relative to Sham PBS 0.5% Eth, mean±SEM.

Consider `CCCCCCCCCCCCCCCCOCC(COP(=O)([O-])OCC[N+](C)(C)C)OCCCCC(=O)O` (stereo not shown) [VB-201, 1-hexadecyl-2-(4′-carboxy)butyl-glycero-3-phosphocholine, reference compound], for which, in assay [1], the “chemokine-induced migration of human monocytes” value is “inhibit”. Besides, in assay [2], the “IL-12p40 levels, LPS (TLR4)-stimulated” value is reported as “inhibit”.
Regarding `CCCCCCCCCCC(CCCCCCCC)COC[C@H](COP(=O)([O-])OCC[n+]1ccccc1)OCCCCC(=O)O` (stereo partly drawn) [VB-703, (R)-1-(2′-octyl)dodecyl-2-(4′-carboxy)butyl-sn-glycero-3-phosphoric acid pyridiniumethyl ester], the steatosis entry in assay [3] (VB-703 4 mg/kg once daily for three weeks) is recorded as “did not appear to significantly alter”. The “decrease of liver fibrosis compared to vehicle treated mice (Sirius red)” value in assay [3] (VB-703 4 mg/kg, telmisartan 10 mg/kg, once daily for three weeks) amounted to 58%. Besides, in assay [4], the “expression of IL-10 in livers” value is “significantly inhibited”, the “expression of IL-12/23p40 in livers” value is listed as “significantly inhibited” and the “expression of the chemokine MCP-1 in livers” value is listed as “significantly inhibited”. In addition, in assay [5] (setting [6]), the “reduction of Collagen IV expression” value is given as 51%, the “reduction of TGF-β expression” value was determined as 42% and the “reduction of fibronectin expression” value was 47%. In assay [5] (setting [7]), the “Collagen IV mRNA expression (relative mRNA level)” value came to 3.7±0.52, the “TGF-β mRNA expression (relative mRNA level)” value was 4.8±0.32 and the “fibronectin mRNA expression (relative mRNA level)” value was found to be 6.7±0.98.
